Test results reported in patent publication US6017878A (McGill University, priority 1994, dated 2000).
Several values for one entry are separate records, joined by “and”; a condition that tells them apart may be missing. Equal values may be shown once. Entries after “also recorded” stand apart in the source; their conditions may differ.

Legend:
[1] = system: NGF induced neurite outgrowth in PC12 cells; experiment: NGF induced neurite outgrowth assay in PC12 cells; format: cell-based, rat; conditions: analog ~10 μM, 50 ng/ml NGF; for INHIBITION OF NEURITE OUTGROWTH (1): PC12 cells, arbitrary units by comparison with NGF dose response curves
Experimental: (§1) All cells were cultured as described. PC12 pheochromocytoma cells expressing rat p140 trkA and p75 LNGFR (American Type Culture Collection, 7th edition, 1992, Catalog of cell lines and hybridomas, R. Hay Editor, accession No. CRL 1721) were grown in DMEM supplemented with 20% Fetal Bovine Serum (FBS), 10% Horse serum, and antibiotics. PC12 cells used for experiments were grown on collagen coated dishes. The NIH-3T3 fibroblast transfectants R7 (p75 and trkA double transfectant) and E25 (trkA transfectant) (Jing, S. et al. (1992) Neuron, 9: 1067-1079; kindly provided by Dr. Mariano Barbacid, Bristol-Meyers-Squibb, NJ) were grown in RPMI media supplemented with 5% FBS and antibiotics and the appropriate drug selection.
(§2) Cells without growth factor added served as baseline, whereas cells with growth factor but without analog added were used for maximum neurite outgrowth determination. All analogs were tested in at least three separate assays from three different synthesis. Samples were coded and analysis were performed blind.
(§3) Representative results for 3 different analogs are shown. For a summary and complete list of the results from these biological tests see Table II.
Significant inhibition is indicated by +++.

[2] = biological target: T1, PC12 (trkA-p75) (Rattus norvegicus, UniProt P35739); experiment: 125I-NGF binding to PC12 cells; conditions: mean ±2 SEM
T1 construct: PC12 pheochromocytoma cells expressing rat p140 trkA and p75 LNGFR; host or cells: PC12 rat pheochromocytoma cells
Experimental: as §1
Analogs were tested for their ability to affect binding of ^125 I-NGF (73.1 μCi/μg NEN, DuPont). […] After 15 min, ^125 I-NGF was added to a final concentration of 0.4-2 nM (^~ 40,000 cpm) and the mixtures were further incubated for 40 min at 4° C. Cells were then washed in binding buffer, pelleted, and cell-associated ^125 I-NGF was determined. […] Assays were performed >4 times, each from at least three different synthesis (inhibitory analogs) or 1-3 times each from 2 different synthesis (non-inhibitory analogs). Receptor saturation experiments were similarly performed with increasing concentrations of ^125 I-NGF ligand and a constant dose of inhibitor.
To determine the mechanism of biological antagonistic activity by the cyclic analogs, ^125 I-NGF binding measurements were performed with cell lines expressing both p75 and trkA receptors (PC12 cells and R7 transfectants) or only trkA receptors (E25 transfectants) (Table III). Analogs were used at a concentration of ^~ 40 μM.
(§4) Data shown represents an average percent inhibition of binding ±2 standard errors of the mean (2 SEM). […] NT=not tested. (*) assayed only once.
(§5) Percent inhibition was determined by applying the following formula: [formula]

[3] = biological target: T2, R7 (trkA-p75), NIH-3T3 p75 and trkA double transfectant (Homo sapiens, UniProt P04629); experiment: 125I-NGF binding to R7 transfectants; conditions: analog ~40 μM; for % INHIBITION of 125I-NGF binding, R7 (trkA-p75): mean ±2 SEM
T2 construct: expressed in transfected cells; host or cells: NIH-3T3 mouse fibroblasts (R7), from Dr. Mariano Barbacid; Jing et al. 1992
Experimental: as §1
(§6) Assays were performed >4 times, each from at least three different synthesis (inhibitory analogs) or 1-3 times each from 2 different synthesis (non-inhibitory analogs).
(§7) Analogs were used at a concentration of ^~ 40 μM.
as §4, §5

[4] = biological target: T3, E25 (trkA), trkA receptor expressing fibroblast transfectants (Homo sapiens, UniProt P04629); experiment: 125I-NGF binding to E25 transfectants, with dose response and saturation studies; conditions: for % INHIBITION of 125I-NGF binding, E25 (trkA) / effect on 125I-NGF binding to E25 cells (in words): analog ~40 μM; for % INHIBITION of 125I-NGF binding, E25 (trkA): mean ±2 SEM
T3 construct: expressed in transfected cells; host or cells: NIH-3T3 mouse fibroblasts (E25), from Dr. Mariano Barbacid; Jing et al. 1992
Experimental: as §1, §6, §7, §4, §5
Saturation binding assays were performed with trkA receptor expressing E25 cells as described above.

[5] = system: bFGF mediated neurite outgrowth in PC12 cells; experiment: bFGF mediated neurite outgrowth in PC12 cells (specificity control); format: cell-based, rat; conditions: analog ~10 μM, 50 ng/ml bFGF
Experimental: as §2, §3

[6] = system: PC12 cells; experiment: Toxicity control: cell death of PC12 cells after culture with the compounds; format: cell-based, rat
[7] = biological target: T4, surface trkA receptors on E25 cells (Homo sapiens, UniProt P04629); experiment: trkA receptor internalization in E25 cells (FACScan); format: cell-based; conditions: 10 μM, 30 min, 37° C. permissive vs 4° C. 0.05% sodium azide
T4 construct: expressed in transfected cells; host or cells: NIH-3T3 mouse fibroblasts (E25), from Dr. Mariano Barbacid; Jing et al. 1992
Source text: Expression of surface trkA receptors was quantified by FACScan analysis.
FIG. 4A illustrates FACScan profiles using an anti-trkA specific monoclonal antibody versus control mouse IgG.
FIG. 4B is a graph of the analysis of the % reduction of cell surface mean fluorescence channel (MFC, using the Lysis (B.D.) software) after receptor internalization.

[8] = biological target: T3, E25 (trkA), trkA receptor expressing fibroblast transfectants; experiment: 125I-NGF binding to E25 transfectants, with dose response and saturation studies; conditions: dose response 0.4 μM to 200 μM analog, constant 200 pM 125I-NGF; read-out: IC50, inhibition of 125I-NGF binding
[9] = system: NGF biological activity; conditions: Longo et al. 1990; cited from earlier work

T1 sequence (P35739 33-799): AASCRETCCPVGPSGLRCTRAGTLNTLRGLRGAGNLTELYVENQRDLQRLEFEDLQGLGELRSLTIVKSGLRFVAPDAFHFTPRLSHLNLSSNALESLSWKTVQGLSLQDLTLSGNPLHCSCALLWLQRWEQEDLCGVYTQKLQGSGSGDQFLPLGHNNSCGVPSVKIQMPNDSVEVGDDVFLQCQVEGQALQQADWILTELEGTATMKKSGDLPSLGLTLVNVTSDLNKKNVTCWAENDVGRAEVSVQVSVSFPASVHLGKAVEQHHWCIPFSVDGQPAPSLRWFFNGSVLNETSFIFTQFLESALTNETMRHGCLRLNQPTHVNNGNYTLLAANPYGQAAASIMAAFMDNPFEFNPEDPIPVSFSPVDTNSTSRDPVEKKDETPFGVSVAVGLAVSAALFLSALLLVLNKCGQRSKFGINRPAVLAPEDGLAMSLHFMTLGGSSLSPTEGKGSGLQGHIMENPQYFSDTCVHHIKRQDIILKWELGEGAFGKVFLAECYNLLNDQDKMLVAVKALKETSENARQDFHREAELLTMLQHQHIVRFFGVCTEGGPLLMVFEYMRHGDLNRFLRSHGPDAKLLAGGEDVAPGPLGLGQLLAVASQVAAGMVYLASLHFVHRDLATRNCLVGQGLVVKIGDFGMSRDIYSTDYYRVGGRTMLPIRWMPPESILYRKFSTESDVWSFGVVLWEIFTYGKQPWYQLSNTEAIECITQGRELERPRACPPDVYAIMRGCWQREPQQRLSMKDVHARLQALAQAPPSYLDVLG
T2 sequence (P04629 33-796): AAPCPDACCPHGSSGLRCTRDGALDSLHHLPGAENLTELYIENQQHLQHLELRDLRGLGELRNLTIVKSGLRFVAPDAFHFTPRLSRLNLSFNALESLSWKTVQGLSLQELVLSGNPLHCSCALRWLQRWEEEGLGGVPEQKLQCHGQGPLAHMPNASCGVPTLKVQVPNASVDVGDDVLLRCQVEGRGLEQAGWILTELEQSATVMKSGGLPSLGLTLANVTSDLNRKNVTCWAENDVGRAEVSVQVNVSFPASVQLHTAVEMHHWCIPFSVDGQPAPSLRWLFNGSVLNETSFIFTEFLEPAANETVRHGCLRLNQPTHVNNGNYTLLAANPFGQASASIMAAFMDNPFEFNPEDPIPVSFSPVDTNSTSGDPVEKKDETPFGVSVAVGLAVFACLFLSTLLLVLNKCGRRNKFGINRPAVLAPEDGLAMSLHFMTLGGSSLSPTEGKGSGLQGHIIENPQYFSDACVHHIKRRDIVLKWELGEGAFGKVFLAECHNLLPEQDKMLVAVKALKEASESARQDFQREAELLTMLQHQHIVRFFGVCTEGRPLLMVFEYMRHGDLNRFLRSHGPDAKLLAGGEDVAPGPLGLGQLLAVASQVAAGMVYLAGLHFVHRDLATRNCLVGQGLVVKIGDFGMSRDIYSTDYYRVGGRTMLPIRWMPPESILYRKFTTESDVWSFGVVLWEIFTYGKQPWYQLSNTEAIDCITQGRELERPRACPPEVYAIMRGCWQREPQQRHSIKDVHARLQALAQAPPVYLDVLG
T3 sequence (P04629 33-790 isoform P04629-2 limits assumed): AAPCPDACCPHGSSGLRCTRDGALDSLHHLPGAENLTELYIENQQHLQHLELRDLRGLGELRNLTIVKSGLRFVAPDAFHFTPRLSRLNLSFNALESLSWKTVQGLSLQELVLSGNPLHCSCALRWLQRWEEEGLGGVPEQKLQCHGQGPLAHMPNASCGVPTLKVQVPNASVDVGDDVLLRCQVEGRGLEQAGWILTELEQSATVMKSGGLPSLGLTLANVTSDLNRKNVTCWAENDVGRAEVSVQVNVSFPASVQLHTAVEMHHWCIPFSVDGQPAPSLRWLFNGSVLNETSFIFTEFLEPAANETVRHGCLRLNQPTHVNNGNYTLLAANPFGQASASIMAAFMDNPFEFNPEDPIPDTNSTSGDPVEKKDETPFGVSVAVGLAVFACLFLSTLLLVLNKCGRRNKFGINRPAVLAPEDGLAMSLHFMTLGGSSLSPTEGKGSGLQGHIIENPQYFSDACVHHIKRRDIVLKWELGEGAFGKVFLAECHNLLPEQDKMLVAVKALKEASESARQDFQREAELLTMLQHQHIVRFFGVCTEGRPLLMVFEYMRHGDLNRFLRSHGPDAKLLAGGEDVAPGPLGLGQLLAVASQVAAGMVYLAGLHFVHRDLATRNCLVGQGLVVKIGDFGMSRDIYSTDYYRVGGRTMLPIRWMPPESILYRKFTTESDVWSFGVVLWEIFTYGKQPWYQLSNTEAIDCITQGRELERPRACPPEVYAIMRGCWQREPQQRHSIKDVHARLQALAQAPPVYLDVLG
T4 sequence (P04629 33-790 isoform P04629-2 limits assumed): as above

Substance: A N V S R S P E G (ANVSRSPEG) [R(59-67), randomized 59-67 control]
- INHIBITION OF NEURITE OUTGROWTH (1) [1]: + (equivalent to 25 ng/ml NGF)

Substance: A T D I K G K E V (ATDIKGKEV) [L(28-36), linear 28-36 control]
- % INHIBITION of 125I-NGF binding, PC12 (trkA-p75) ([2]; analog ~40 μM): 5.0%
- % INHIBITION of 125I-NGF binding, R7 (trkA-p75) [3]: -11.3%
- % INHIBITION of 125I-NGF binding, E25 (trkA) [4]: 6.4 ± 12.4%

Substance: Fmoc-X C A S N P V E S C X [C(60-66)]
- INHIBITION OF NEURITE OUTGROWTH (1) [1]: ++ (equivalent to 12.5 ng/ml NGF)

Substance: Fmoc-X C D I K G K E C X [C(30-35)]
- effect on NGF mediated PC12 neurite outgrowth (in words) [1]: did not affect
- effect on bFGF mediated PC12 neurite outgrowth (in words) [5]: did not affect
- effect on 125I-NGF binding to R7 cells (in words) [3]: did not affect NGF binding to R7 cells
- % INHIBITION of 125I-NGF binding, R7 (trkA-p75) [3]: 0.44 ± 0.6%
- effect on 125I-NGF binding to E25 cells (in words) [4]: inhibited NGF binding to E25 cells
- % INHIBITION of 125I-NGF binding, E25 (trkA) [4]: 51.1 ± 0.7%

Substance: Fmoc-X C I K G K E C X [C(31-35)]
- INHIBITION OF NEURITE OUTGROWTH (1) [1]: ++ (equivalent to 12.5 ng/ml NGF)

Substance: Fmoc-X C I N N S V C X [C(44-48)]
- effect on NGF mediated PC12 neurite outgrowth (in words) [1]: significantly inhibited; also recorded: effective in inhibiting biological assays in PC12 cells
- INHIBITION OF NEURITE OUTGROWTH (1) [1]: +++ (equivalent to 6.25 ng/ml NGF)
- effect on bFGF mediated PC12 neurite outgrowth (in words) [5]: did not affect
- effect on 125I-NGF binding to E25 cells (in words) [4]: did not inhibit; also recorded: without being effective at all in binding assays in E25 cells
- % INHIBITION of 125I-NGF binding, E25 (trkA) [4]: -12.5 ± 5.4%

Substance: Fmoc-X C K G K E C X [C(32-35)]
- INHIBITION OF NEURITE OUTGROWTH (1) [1]: ++ (equivalent to 12.5 ng/ml NGF)
- % INHIBITION of 125I-NGF binding, PC12 (trkA-p75) ([2]; analog ~40 μM): 9.0%
- effect on 125I-NGF binding to R7 cells (in words) [3]: did not affect NGF binding to R7 cells
- % INHIBITION of 125I-NGF binding, R7 (trkA-p75) [3]: -4.5 ± 6.5%
- effect on 125I-NGF binding to E25 cells (in words) [4]: inhibited NGF binding to E25 cells
- % INHIBITION of 125I-NGF binding, E25 (trkA) [4]: 30.7 ± 10.5%

Substance: Fmoc-X C N I N N S C X [C(43-47)]
- INHIBITION OF NEURITE OUTGROWTH (1) [1]: + (equivalent to 25 ng/ml NGF)

Substance: Fmoc-X C N I N N S V C X [C(43-48)]
- effect on NGF mediated PC12 neurite outgrowth (in words) [1]: significantly inhibited; also recorded: effective in inhibiting biological assays in PC12 cells
- INHIBITION OF NEURITE OUTGROWTH (1) [1]: +++ (equivalent to 6.25 ng/ml NGF)
- effect on bFGF mediated PC12 neurite outgrowth (in words) [5]: did not affect; also recorded: bFGF was not affected
- % INHIBITION of 125I-NGF binding, R7 (trkA-p75) [3]: 5.0%
- effect on 125I-NGF binding to E25 cells (in words) [4]: did not inhibit; also recorded: without being effective at all in binding assays in E25 cells
- % INHIBITION of 125I-NGF binding, E25 (trkA) [4]: -2.7 ± 8.5%

Substance: Fmoc-X C S N P V E S C X [C(61-66)]
- cell death / necrosis after culture with the compounds [6]: did cause necrosis

Substance: Fmoc-X C T A I K G K E C X [C(29-35ΔD30A)]
- cell death / necrosis after culture with the compounds [6]: did cause necrosis

Substance: Fmoc-X C T D E K Q A C X [C(92-97)]
- effect on NGF mediated PC12 neurite outgrowth (in words) [1]: significantly inhibited
- INHIBITION OF NEURITE OUTGROWTH (1) [1]: +++ (equivalent to 6.25 ng/ml NGF)
- effect on bFGF mediated PC12 neurite outgrowth (in words) [5]: did not affect
- % INHIBITION of 125I-NGF binding, R7 (trkA-p75) ([3]; 40 µM): 24.3% and 24.3 ± 9.2%
- % INHIBITION of 125I-NGF binding, E25 (trkA) ([4]; 40 µM): 64.9% and 64.9 ± 12.4%
- disappearance of surface trkA receptors (receptor internalization) [7]: induced the disappearance of surface trkA receptors at the permissive conditions only

Substance: Fmoc-X C T D E K Q C X [C(92-96)]
- effect on NGF mediated PC12 neurite outgrowth (in words) [1]: significantly inhibited
- effect on bFGF mediated PC12 neurite outgrowth (in words) [5]: did not affect
- % INHIBITION of 125I-NGF binding, PC12 (trkA-p75) ([2]; analog ~40 μM): 86.4 ± 10.4%
- % INHIBITION of 125I-NGF binding, R7 (trkA-p75) ([3]; 40 µM): 51.1% and 51.1 ± 0.7%
- nature of inhibition in saturation analysis ([4]; 45 μM analog, 125I-NGF 0-1.13 nM, E25 cells): competitive nature
- % INHIBITION of 125I-NGF binding, E25 (trkA) ([4]; 40 µM): 71.3% and 71.3 ± 13.5%
- IC50 [8]: 23.5 ± 16 µM

Substance: N N S F V I N V (NNSFVINV) [R(42-49), randomized 42-49 control]
- INHIBITION OF NEURITE OUTGROWTH (1) [1]: + (equivalent to 25 ng/ml NGF)

Substance: Nerve Growth Factor [NGF]
- % INHIBITION of 125I-NGF binding, PC12 (trkA-p75) ([2]; 0.1 uM unlabeled NGF): 69.5 ± 4.5%

Substance: R A S N P V E S G (RASNPVESG) [L(59-67), linear 59-67 control]
- INHIBITION OF NEURITE OUTGROWTH (1) [1]: + (equivalent to 25 ng/ml NGF)
- % INHIBITION of 125I-NGF binding, E25 (trkA) [4]: -9.5 ± 7.5%

Substance: T T D E K Q A A W (TTDEKQAAW) [L(91-99), linear 91-99 control]
- INHIBITION OF NEURITE OUTGROWTH (1) [1]: + (equivalent to 25 ng/ml NGF)
- % INHIBITION of 125I-NGF binding, R7 (trkA-p75) [3]: 3.8 ± 1.0%
- effect on 125I-NGF binding to E25 cells (in words) [4]: None of the other cyclic, linear or randomized analogs had significant effects
- % INHIBITION of 125I-NGF binding, E25 (trkA) [4]: 2.1 ± 8.5%

Substance: V N I N N S V F (VNINNSVF) [L(42-49), linear 42-49 control]
- % INHIBITION of 125I-NGF binding, R7 (trkA-p75) [3]: 8.0%
- % INHIBITION of 125I-NGF binding, E25 (trkA) [4]: -16.0 ± 15.1%

Substance: X C A S N P V E C [C(60-65)]
- INHIBITION OF NEURITE OUTGROWTH (1) [1]: ++ (equivalent to 12.5 ng/ml NGF)

Substance: peptide with sequences from NGF residues 23-35: prior-art linear peptide of Longo et al. with sequences from NGF residues 23-35 (GDKTTATDIKGKE; UniProt P01138 144-156, looked up, fragment)
- concentration of peptide at which inhibition of NGF biological activity occurred [9]: 2 mM
